Results reported in patent US20100137313A1 (ASTRAZENECA AB, priority 2008, published 2010).

Molecular target: S. pneumoniae Topoisomerase IV ATPase (ParE) (Streptococcus pneumoniae serotype 4, UniProt Q59961)
Assay: S. pneumoniae Topoisomerase IV ATPase inhibition
Format: biochemical
Conditions: values marked * are an average of two or more data points, read-out: % Inh (13 μM) of S. pneumoniae Topoisomerase IV ATPase
In short: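 Malachite green/ammonium molybdate phosphate detection, A650. 1.25 nM ParE, 160 μM ATP, sheared salmon sperm DNA 5 μg/ml, 20 mM Tris pH 8.0, 8.0 mM MgCl2. Controls: 2% DMSO = 0%, 20 μM EDTA = 100% inhibition; IC50 over 10 concentrations.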

Chain of S. pneumoniae Topoisomerase IV ATPase (ParE) (Q59961 whole entry): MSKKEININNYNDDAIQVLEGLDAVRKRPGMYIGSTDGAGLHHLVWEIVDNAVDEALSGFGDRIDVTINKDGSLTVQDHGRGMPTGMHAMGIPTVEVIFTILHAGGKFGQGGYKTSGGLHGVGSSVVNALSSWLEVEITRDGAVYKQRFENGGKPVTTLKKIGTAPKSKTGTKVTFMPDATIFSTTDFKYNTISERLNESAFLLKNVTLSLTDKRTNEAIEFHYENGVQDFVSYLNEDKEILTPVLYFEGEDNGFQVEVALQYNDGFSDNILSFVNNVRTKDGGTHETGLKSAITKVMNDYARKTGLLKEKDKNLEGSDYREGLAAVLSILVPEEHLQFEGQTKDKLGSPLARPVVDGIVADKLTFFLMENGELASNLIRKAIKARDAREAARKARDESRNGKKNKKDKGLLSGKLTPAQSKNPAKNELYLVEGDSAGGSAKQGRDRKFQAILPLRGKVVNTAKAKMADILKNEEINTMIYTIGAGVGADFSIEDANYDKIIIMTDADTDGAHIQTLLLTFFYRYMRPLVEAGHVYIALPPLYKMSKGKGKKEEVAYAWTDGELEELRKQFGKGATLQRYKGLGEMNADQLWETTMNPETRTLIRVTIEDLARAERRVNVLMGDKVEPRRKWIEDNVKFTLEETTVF

Compound	inhibition at 13 µM
O=C(O)C1CCCN(c2cccc(-c3cnc(Nc4ccc(F)c(Cl)c4)nc3-n3ccc(C(F)(F)F)n3)c2)C1 (centres unmarked) [Example 601, 1-(3-{2-[(3-chloro-4-fluorophenyl)amino]-4-[3-(trifluoromethyl)-1H-pyrazol-1-yl]pyrimidin-5-yl}phenyl)piperidine-3-carboxylic acid]	100%
O=C(O)c1cncc(-c2cnc(Nc3ccc(F)c(Cl)c3)nc2NCCCN2CCOCC2)c1 [Example 233, 5-[2-[(3-chloro-4-fluorophenyl)amino]-4-(3-morpholin-4-ylpropylamino)pyrimidin-5-yl]pyridine-3-carboxylic acid]	75.4%
Cc1nccn1-c1nc(Nc2ccc(F)c(Cl)c2)ncc1-c1cccc(/C=C/C(=O)O)c1 [Example 314, (2E)-3-(3-{2-[(3-chloro-4-fluorophenyl)amino]-4-(2-methyl-1H-imidazol-1-yl)pyrimidin-5-yl}phenyl)prop-2-enoic acid]	83.4%
COCC(COC)Nc1nc(Nc2ccc(F)c(Cl)c2)ncc1-c1cncc(C(=O)O)c1 [Example 283, 5-(2-(3-chloro-4-fluorophenylamino)-4-(1,3-dimethoxypropan-2-ylamino)pyrimidin-5-yl)nicotinic acid]	89.9%
Cc1cc(C(F)(F)F)nn1-c1nc(Nc2ccc(F)c(Cl)c2)ncc1-c1cc(C(=O)O)c(=O)n(CCO)c1 [Example 1084, 5-(2-(3-Chloro-4-fluorophenylamino)-4-(5-methyl-3-(trifluoromethyl)-1H-pyrazol-1-yl)pyrimidin-5-yl)-1-(2-hydroxyethyl)-2-oxo-1,2-dihydropyridine-3-carboxylic acid]	100%
COc1ncc(-c2cnc(Nc3ccc(F)c(Cl)c3)nc2NCCCN(C)C)cn1 [Example 1, N^2-(3-chloro-4-fluorophenyl)-N^4-(3-(dimethylamino)propyl)-2′-methoxy-5,5′-bipyrimidine-2,4-diamine]	5.14%
O=C(O)c1cncc(-c2cnc(Nc3ccc(F)c(Cl)c3)nc2-n2cc(-c3ccccn3)cn2)c1 [Example 535]	100%
O=C(O)c1cncc(-c2cnc(Nc3ccc(F)c(Cl)c3)nc2N[C@@H]2CCOC2)c1 [Example 279, (R)-5-(2-(3-chloro-4-fluorophenylamino)-4-(tetrahydrofuran-3-ylamino)pyrimidin-5-yl)nicotinic acid]	80.4%
COc1cc(Nc2ncc(-c3cnc(-n4ccnc4)c(C(=O)O)c3)c(-n3ccc(C(F)(F)F)n3)n2)cc(OC)c1 [Example 590, 5-(2-(3,5-dimethoxyphenylamino)-4-(3-(trifluoromethyl)-1H-pyrazol-1-yl)pyrimidin-5-yl)-2-(1H-imidazol-1-yl)nicotinic acid]	100%
O=C(O)c1cncc(-c2cnc(Nc3ccc(F)c(Cl)c3)nc2NCCc2c[nH]cn2)c1 [Example 257, 5-(2-[(3-chloro-4-fluorophenyl)amino]-4-{[2-(1H-imidazol-4-yl)ethyl]amino}pyrimidin-5-yl)pyridine-3-carboxylic acid]	83.8%
CCn1cc(-c2cnc(Nc3cc(C)cc(OC)c3)nc2-n2ccc(C(F)(F)F)n2)cc(C(=O)O)c1=O [Example 1172, 1-ethyl-5-{2-[(3-methoxy-5-methylphenyl)amino]-4-[3-(trifluoromethyl)-1H-pyrazol-1-yl]pyrimidin-5-yl}-2-oxo-1,2-dihydropyridine-3-carboxylic acid]	100%
CCNC(=O)c1ccc(-c2cnc(Nc3ccc(F)c(Cl)c3)nc2NCCCN(C)C)s1 [Example 367, 5-(2-(3-chloro-4-fluorophenylamino)-4-(3-(dimethylamino)propylamino)pyrimidin-5-yl)-N-ethylthiophene-2-carboxamide]	104%
CCOC(=O)c1cncc(-c2cnc(Nc3ccc(F)c(Cl)c3)nc2NCCNC(=O)OC(C)(C)C)c1 [Example 98, 5-[4-(2-tert-Butoxycarbonylamino-ethylamino)-2-(3-chloro-4-fluoro-phenylamino)-pyrimidin-5-yl]-nicotinic acid ethyl ester]	59.4%
CC1CCCN1c1nc(Nc2ccc(F)c(Cl)c2)ncc1-c1cncc(C(=O)O)c1 (centres unmarked) [Example 251, 5-[2-[(3-chloro-4-fluorophenyl)amino]-4-(2-methylpyrrolidin-1-yl)pyrimidin-5-yl]pyridine-3-carboxylic acid]	79.9%
COc1cc(Nc2ncc(-c3cnc(OC)c(-c4n[nH]c(=O)o4)c3)c(-n3ccc(C(F)(F)F)n3)n2)cc(OC)c1 [Example 807, 5-(5-{2-[(3,5-dimethoxyphenyl)amino]-4-[3-(trifluoromethyl)-1H-pyrazol-1-yl]pyrimidin-5-yl}-2-methoxypyridin-3-yl)-1,3,4-oxadiazol-2(3H)-one]	100%
COCCCNc1nc(Nc2ccc(F)c(Cl)c2)ncc1-c1nc(-c2ccccc2)c(C(=O)O)s1 [Example 510, 2-{2-[(3-chloro-4-fluorophenyl)amino]-4-[(3-methoxypropyl)amino]pyrimidin-5-yl}-4-phenyl-1,3-thiazole-5-carboxylic acid]	97%
COc1cc(Nc2ncc(-c3cnc(OC)c(-c4noc(=O)[nH]4)c3)c(-n3nc(C(F)(F)F)cc3C)n2)cc(OC)c1 [Example 975, 3-(5-(2-(3,5-dimethoxyphenylamino)-4-(5-methyl-3-(trifluoromethyl)-1H-pyrazol-1-yl)pyrimidin-5-yl)-2-methoxypyridin-3-yl)-1,2,4-oxadiazol-5(4H)-one]	100%
COc1cc(C)cc(Nc2ncc(-c3cc(C(=O)NS(C)(=O)=O)c(=O)n(C)c3)c(-n3nc(C(F)(F)F)cc3C)n2)c1 [Example 1174, 5-{2-[(3-methoxy-5-methylphenyl)amino]-4-[5-methyl-3-(trifluoromethyl)-1H-pyrazol-1-yl]pyrimidin-5-yl}-1-methyl-N-(methylsulfonyl)-2-oxo-1,2-dihydropyridine-3-carboxamide]	100%
O=C(O)/C=C/c1cccc(-c2cnc(Nc3ccc(F)c(Br)c3)nc2N2CCOCC2)c1 [Example 454]	92%
Cc1cnc(CNc2nc(Nc3ccc(F)c(Cl)c3)ncc2-c2cncc(C(=O)O)c2)cn1 [Example 242, 5-[2-[(3-chloro-4-fluorophenyl)amino]-4-[(5-methylpyrazin-2-yl)methylamino]pyrimidin-5-yl]pyridine-3-carboxylic acid]	61.3%
O=C1CCCN1CCCNc1nc(Nc2ccc(F)c(Cl)c2)ncc1-c1cncnc1 [Example 34, 1-[3-[[2-[(3-chloro-4-fluorophenyl)amino]-5-pyrimidin-5-ylpyrimidin-4-yl]amino]propyl] pyrrolidin-2-one]	84.3%
CCOC(=O)/C=C/c1cccc(-c2cnc(Nc3cc(C)c(Cl)cc3OC)nc2NCCCN(C)C)c1 [Example 343, (E)-ethyl 3-(3-(2-(4-chloro-2-methoxy-5-methylphenylamino)-4-(3-(dimethylamino)propylamino)pyrimidin-5-yl)phenyl)acrylate]	-22.3%
CN(C)CCCNc1nc(Nc2ccc(F)c(F)c2)ncc1-c1cccc(/C=C/C(=O)O)c1 [Example 336, (E)-3-(3-(2-(3,4-difluorophenylamino)-4-(3-(dimethylamino)propylamino)pyrimidin-5-yl)phenyl)acrylic acid]	83.7%
